This is an account of results in US20120165310A1, “ETHER DERIVATIVES OF BICYCLIC HETEROARYLS” (NOVARTIS AG, priority 2009, published 2012).

T1 sequence (P08069 31-1367): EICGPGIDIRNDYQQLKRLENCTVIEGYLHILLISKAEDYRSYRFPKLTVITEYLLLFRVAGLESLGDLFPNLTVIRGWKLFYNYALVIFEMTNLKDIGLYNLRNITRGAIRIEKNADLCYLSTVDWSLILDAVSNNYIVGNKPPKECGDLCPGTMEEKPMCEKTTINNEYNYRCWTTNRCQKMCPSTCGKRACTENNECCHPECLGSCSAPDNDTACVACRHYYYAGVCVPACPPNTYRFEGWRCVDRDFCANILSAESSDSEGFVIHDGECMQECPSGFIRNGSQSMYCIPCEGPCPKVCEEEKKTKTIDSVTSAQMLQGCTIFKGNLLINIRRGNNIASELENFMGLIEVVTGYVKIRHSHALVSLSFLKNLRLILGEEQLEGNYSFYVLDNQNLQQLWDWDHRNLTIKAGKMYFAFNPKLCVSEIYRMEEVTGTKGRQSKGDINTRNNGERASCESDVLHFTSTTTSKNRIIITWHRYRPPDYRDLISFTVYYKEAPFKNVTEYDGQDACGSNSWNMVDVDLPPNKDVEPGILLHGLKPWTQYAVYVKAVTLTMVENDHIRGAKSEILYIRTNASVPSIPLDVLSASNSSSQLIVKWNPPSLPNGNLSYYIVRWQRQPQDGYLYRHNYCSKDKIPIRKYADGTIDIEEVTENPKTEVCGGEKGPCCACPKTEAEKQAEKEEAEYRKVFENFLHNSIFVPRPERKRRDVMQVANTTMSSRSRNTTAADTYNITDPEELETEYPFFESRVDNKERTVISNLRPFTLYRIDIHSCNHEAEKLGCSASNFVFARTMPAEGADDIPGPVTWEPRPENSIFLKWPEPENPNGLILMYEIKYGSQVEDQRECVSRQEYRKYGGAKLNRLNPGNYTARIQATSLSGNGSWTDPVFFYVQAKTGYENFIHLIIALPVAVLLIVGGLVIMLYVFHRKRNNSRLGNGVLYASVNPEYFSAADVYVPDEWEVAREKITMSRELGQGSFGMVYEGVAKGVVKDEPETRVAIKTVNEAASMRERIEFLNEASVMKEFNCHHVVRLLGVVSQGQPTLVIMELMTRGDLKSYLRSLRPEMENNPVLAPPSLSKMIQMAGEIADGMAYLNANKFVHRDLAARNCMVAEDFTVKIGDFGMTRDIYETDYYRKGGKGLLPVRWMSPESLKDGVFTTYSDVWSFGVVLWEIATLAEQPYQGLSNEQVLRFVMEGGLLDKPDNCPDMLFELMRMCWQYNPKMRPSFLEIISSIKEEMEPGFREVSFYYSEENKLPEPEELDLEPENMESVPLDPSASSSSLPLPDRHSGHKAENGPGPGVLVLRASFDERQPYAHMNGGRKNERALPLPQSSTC

The assay has as its target T1, IGF-1R (Homo sapiens, UniProt P08069).
T1 construct: expressed in transfected cells; host or cells: Hek293 (Hek293-IGF1R)
Put plainly: Cellular IGF-1R assay: capture ELISA (MSD) of receptor phosphorylation in Hek293 cells. The assay is classed as cell-based. The following applies: Hek293-IGF1R cells, 1 h pre-incubation, 10 min IGF stimulation, pIGF1R capture ELISA. In a few lines:
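IC50 from 4-parameter fit of IGF1R phosphorylation, normalised to IGF-stimulated and unstimulated controls, measured by MSD capture ELISA on lysates. Hek293-IGF1R cells in starvation medium got compound 1 h (top 10 μM, 3-fold steps, 0.1% DMSO) before a 10 min pulse of 1.0 ng/μL IGF.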
`NC(=O)[C@@H]1CCCN1[C@H]1C[C@H](n2cc(-c3cccc(OCC45CCC(CC4)O5)c3)c3c(N)ncnc32)C1` [Example 190, (S)-1-(trans-3-{4-Amino-5-[3-(7-oxa-bicyclo[2.2.1]hept-1-ylmethoxy)-phenyl]-pyrrolo[2,3-d]pyrimidin-7-yl}-cyclobutyl)-pyrrolidine-2-carboxylic acid amide] showed a concentration for half-maximal inhibition (IC50) of 0.435 µM. This counts as sub-micromolar.

Take `Nc1ncnc2c1c(-c1cccc(OCC34CCC(CC3)O4)c1)cn2C1CC(O)(CN2CCC(O)CC2)C1` (centres unmarked) [Example 192, 1-(3-{4-Amino-5-[3-(7-oxa-bicyclo[2.2.1]hept-1-ylmethoxy)-phenyl]-pyrrolo[2,3-d]pyrimidin-7-yl}-1-hydroxy-cyclobutylmethyl)-piperidin-4-ol]: inhibition was half-maximal at 0.063 µM (IC50).

`Nc1ncnc2c1c(-c1cccc(OCC34CCC(CC3)O4)c1)cn2[C@H]1C[C@@]2(COC(=O)O2)C1` [Example 197, (E)-2-{4-Amino-5-[3-(7-oxa-bicyclo[2.2.1]hept-1-ylmethoxy)-phenyl]-pyrrolo[2,3d]pyrimidin-7-yl}-5,7-dioxa-spiro[3.4]octan-6-one] came in with an IC50 of 0.099 µM.

`NC(=O)[C@@H]1CCCN1C[C@]1(O)C[C@@H](n2cc(-c3cccc(OCC45CCC(CC4)O5)c3)c3c(N)ncnc32)C1` [Example 198, (S)-(Z)-1-(3-(4-Amino-5-[3-(7-oxa-bicyclo[2.2.1]hept-1-ylmethoxy)-phenyl]-pyrrolo[2,3-d]pyrimidin-7-yl}-1-hydroxy-cyclobutylmethyl)-pyrrolidine-2-carboxylic acid amide]: the IC50 was found to be 0.033 µM.

Turning to `Nc1ncnc2c1c(-c1cccc(OCC34CCC(CC3)O4)c1)cn2[C@H]1C[C@](O)(CN2CC(O)C2)C1` [Example 199, (Z)-1-(3-{4-Amino-5-[3-(7-oxa-bicyclo[2.2.1]hept-1-ylmethoxy)-phenyl]-pyrrolo[2,3-d]pyrimidin-7-yl}-1-hydroxy-cyclobutylmethyl)-azetidin-3-ol], the half-inhibitory concentration (IC50) was found to be 0.201 µM.

`NC[C@]1(O)C[C@H](n2cc(-c3cccc(OCC45CCC(CC4)O5)c3)c3c(N)ncnc32)C1` [Example 201] displayed an IC50 of 0.478 µM.

In turn, `Nc1ncnc2c1c(-c1cccc(OCC34CCC(CC3)O4)c1)cn2[C@H]1C[C@@](O)(CN2CCS(=O)(=O)CC2)C1` [Example 205, (E)-3-{4-Amino-5-[3-(7-oxa-bicyclo[2.2.1]hept-1-ylmethoxy)-phenyl]-pyrrolo[2,3-d]pyrimidin-7-yl}-1-(1,1-dioxo-1lambda*6*-thiomorpholin-4-ylmethyl)-cyclobutanol] returned a half-inhibitory concentration (IC50) of 0.014 µM.

In the case of `NC[C@]1(O)C[C@@H](n2cc(-c3cccc(OCC45CCC(CC4)O5)c3)c3c(N)ncnc32)C1` [Example 208, (Z)-1-Aminomethyl-3-{4-amino-5-[3-(7-oxa-bicyclo[2.2.1]hept-1-ylmethoxy)-phenyl]-pyrrolo[2,3-d]pyrimidin-7-yl}-cyclobutanol], inhibition was half-maximal at 0.175 µM (IC50). This IC50 is about 12-fold higher than that of the compound before.

With `NC(=O)[C@H]1CCCN1CC1(O)CC(n2cc(-c3cccc(OCC45CCC(CC4)O5)c3)c3c(N)ncnc32)C1` (stereo partly drawn) [Example 212, (R)-(E)-1-(3-{4-Amino-5-[3-(7-oxa-bicyclo[2.2.1]hept-1-ylmethoxy)-phenyl]-pyrrolo[2,3-d]pyrimidin-7-yl}-1-hydroxy-cyclobutylmethyl)-pyrrolidine-2-carboxylic acid amide], half-maximal inhibition (IC50) was put at 0.312 µM.

Consider `Nc1ncnc2c1c(-c1cccc(OCC34CCC(CC3)O4)c1)cn2C1CC(CN2CC[C@@H](O)C2)C1` (stereo partly drawn) [Example 213, (R)-1-(3-{4-Amino-5-[3-(7-oxa-bicyclo[2.2.1]hept-1-ylmethoxy)-phenyl]-pyrrolo[2,3-d]pyrimidin-7-yl}-cyclobutylmethyl)-pyrrolidin-3-ol], for which half-maximal inhibition (IC50) was put at 0.015 µM.

On to `Nc1ncnc2c1c(-c1cccc(OCC34CCC(CC3)O4)c1)cn2[C@H]1C[C@@H](CN2CC[C@@H](O)C2)C1` [Example 214, (R)-1-(cis-3-{4-Amino-5-[3-(7-oxa-bicyclo[2.2.1]hept-1-ylmethoxy)-phenyl]-pyrrolo[2,3-d]pyrimidin-7-yl}-cyclobutylmethyl)-pyrrolidin-3-ol], for which the concentration for half-maximal inhibition (IC50) amounted to 0.018 µM.

`Nc1ncnc2c1c(-c1cccc(OCC34CCC(CC3)O4)c1)cn2[C@@H]1CCN(C2CCS(=O)(=O)CC2)C1` [Example 215, 7-[(R)-1-(1,1-dioxo-hexahydro-thiopyran-4-yl)-pyrrolidin-3-yl]-5-[3-(7-oxa-bicyclo[2.2.1]hept-1-ylmethoxy)-phenyl]-7H-pyrrolo[2,3-d]pyrimidin-4-ylamine] displayed an IC50 of 0.332 µM.

`CN1CCC(N2CC[C@@H](n3cc(-c4cccc(OCC56CCC(CC5)O6)c4)c4c(N)ncnc43)C2)CC1` [Example 216, 7-[(R)-1-(1-Methyl-piperidin-4-yl)-pyrrolidin-3-yl]-5-[3-(7-oxa-bicyclo[2.2.1]hept-1-ylmethoxy)-phenyl]-7H-pyrrolo[2,3-d]pyrimidin-4-ylannine] came in with an IC50 of 0.08 µM.

`Cn1nnnc1C[C@]1(O)C[C@H](n2cc(-c3cccc(OCC45CCC(CC4)O5)c3)c3c(N)ncnc32)C1` [Example 217, (E)-3-{4-Amino-5-[3-(7-oxa-bicyclo[2.2.1]hept-1-ylmethoxy)-phenyl]-pyrrolo[2,3-d]pyrimidin-7-yl}-1-(1-methyl-1H-tetrazol-5-ylmethyl)-cyclobutanol] gave a half-maximal inhibitory concentration (IC50) of 0.598 µM.

As to `COC(=O)NC[C@]1(O)C[C@H](n2cc(-c3cccc(OCC45CCC(CC4)O5)c3)c3c(N)ncnc32)C1` [Example 218, (E)-(3-{4-Amino-5-[3-(7-oxa-bicyclo[2.2.1]hept-1-ylmethoxy)-phenyl]-pyrrolo[2,3-d]pyrimidin-7-yl}-1-hydroxy-cyclobutylmethyl)-carbamic acid methyl ester], it took 0.404 µM to reach half-maximal inhibition (IC50).

The compound `CC1(O)CC(n2cc(-c3cccc(OCC45CCC(CC4)O5)c3)c3c(N)ncnc32)C1` (centres unmarked) [Example 219, (E)-3-(4-amino-5-[3-(7-oxa-bicyclo[2.2.1]hept-1-ylmethoxy)-phenyl]-pyrrolo[2,3-d]pyrimidin-7-yl}-1-methyl-cyclobutanol] yielded an IC50 of 0.579 µM.

For the compound `Nc1ncnc2c1c(-c1cccc(OCC34CCC(CC3)O4)c1)cn2[C@H]1C[C@@]2(CNC(=O)CO2)C1` [Example 220, (E)-2-{4-amino-5-[3-(7-oxa-bicyclo[2.2.1]hept-1-ylmethoxy)-phenyl]-pyrrolo[2,3-d]pyrimidin-7-yl}-5-oxa-8-aza-spiro[3.5]nonan-7-one], the half-inhibitory concentration (IC50) is 0.364 µM.

With `Nc1ncnc2c1c(-c1cccc(OCC34CCC(CC3)O4)c1)cn2[C@H]1C[C@H](O)C1` [Example 222, (E)-3-{4-amino-5-[3-(7-oxa-bicyclo[2.2.1]hept-1-ylmethoxy)-phenyl]-pyrrolo[2,3-d]pyrimidin-7-yl}-cyclobutanol], the 50% inhibitory concentration (IC50) was 0.352 µM. The IC50 values of the last two compounds are within 1.5-fold of each other.

Consider `Nc1ncnc2c1c(-c1cccc(OCC34CCC(CC3)O4)c1)cn2C1CN(C2CS(=O)(=O)C2)C1` [Example 224, 7-[1-(1,1-dioxo-thietan-3-yl)-azetidin-3-yl]-5-[3-(7-oxa-bicyclo[2.2.1]hept-1-ylmethoxy)-phenyl]-7H-pyrrolo[2,3-d]pyrimidin-4-ylamine], for which the midpoint of inhibition, the IC50, lay at 0.518 µM.

In turn, `Nc1ncnc2c1c(-c1cccc(OCC34CCC(CC3)O4)c1)cn2[C@@H]1CCN(C2CS(=O)(=O)C2)C1` [Example 225, 7-[(R)-1-(1,1-dioxo-thietan-3-yl)-pyrrolidin-3-yl]-5-[3-(7-oxa-bicyclo[2.2.1]hept-1-ylmethoxy)-phenyl]-7H-pyrrolo[2,3-d]pyrimidin-4-ylamine] showed an IC50 of 0.319 µM.
